Test results from patent US8455475B2 (Gruenenthal GmbH, priority 2009, dated 2013).
Counter-ions that a name gives are not always drawn.

Assays:
[1] = biological target: T1, rat B1R (bradykinin receptor 1) (Rattus norvegicus, UniProt P97583); test: FLIPR Ca2+ assay (Fluo-4) on CHO K1 cells stably transfected with the B1R gene of the rat (rB1R cells): % inhibition at 10 μM / IC50, agonist Des-Arg9-bradykinin; type: cell-based; conditions: CHO-K1, rat B1R
T1 construct: expressed in transfected cells; host or cells: CHO K1 cells
T1 sequence (P97583 1-337): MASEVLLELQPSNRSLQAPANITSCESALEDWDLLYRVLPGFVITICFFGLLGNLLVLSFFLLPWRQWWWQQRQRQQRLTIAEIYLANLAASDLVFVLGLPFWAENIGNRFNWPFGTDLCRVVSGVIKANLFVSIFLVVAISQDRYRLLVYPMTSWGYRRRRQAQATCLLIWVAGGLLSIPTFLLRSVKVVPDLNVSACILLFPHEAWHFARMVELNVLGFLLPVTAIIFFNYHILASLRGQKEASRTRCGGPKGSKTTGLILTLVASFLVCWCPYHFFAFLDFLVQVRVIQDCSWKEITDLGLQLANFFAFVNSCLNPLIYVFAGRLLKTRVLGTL
Procedure, shortened: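 Using a two-addition FLIPR protocol, compound (10 μM for % values; concentration series for IC50) was preincubated 10–20 min with Fluo-4-loaded B1R-expressing CHO K1 cells before EC80 agonist challenge. Suppression of Ca2+ inflow, read as peak fluorescence, is expressed relative to maximum achievable inhibition; duplicate/triplicate, ≥2 independent experiments.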

[2] = biological target: T2, human B1R (bradykinin receptor 1) (Homo sapiens, UniProt P46663); test: FLIPR Ca2+ assay (Fluo-4) on CHO K1 cells stably transfected with the human B1R gene (hB1R cells): % inhibition at 10 μM / IC50, agonist Lys-Des-Arg9-bradykinin; type: cell-based; conditions: CHO-K1, human B1R
T2 construct: expressed in transfected cells; host or cells: CHO K1 cells
T2 sequence (P46663 1-353): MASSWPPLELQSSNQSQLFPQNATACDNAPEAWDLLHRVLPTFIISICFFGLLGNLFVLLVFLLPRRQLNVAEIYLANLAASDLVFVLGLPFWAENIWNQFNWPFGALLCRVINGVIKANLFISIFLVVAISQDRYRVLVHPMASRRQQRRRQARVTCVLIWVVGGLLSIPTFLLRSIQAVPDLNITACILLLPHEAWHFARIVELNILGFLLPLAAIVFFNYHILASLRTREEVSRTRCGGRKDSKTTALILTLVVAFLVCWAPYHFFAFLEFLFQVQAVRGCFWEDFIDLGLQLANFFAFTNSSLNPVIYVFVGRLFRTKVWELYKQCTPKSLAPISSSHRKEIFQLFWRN
Experimental: The agonistic or antagonistic action of substances can be quantified on the bradykinin receptor 1 (B1R) of the human and rat species with ectopically expressing cell lines (CHO K1 cells) and with the aid of a Ca^2+-sensitive dyestuff (Fluo-4) in a fluorescent imaging plate reader (FLIPR). The figure in % activation is based on the Ca^2+ signal after addition of Lys-Des-Arg^9-bradykinin (0.5 nM) or Des-Arg^9-bradykinin (100 nM). Antagonists lead to a suppression of the Ca^2+ inflow after addition of the agonist. % inhibition compared with the maximum achievable inhibition is stated.
The agonistic or antagonistic action of substances can be determined on the bradykinin receptor 1 (B1R) of the human and rat species with the following assay. In accordance with this assay, the Ca^2+ inflow through the channel is quantified with the aid of a Ca^2+-sensitive dyestuff (type Fluo-4, Molecular Probes Europe BV, Leiden, Holland) in a fluorescent imaging plate reader (FLIPR, Molecular Devices, Sunnyvale, USA).
Chinese hamster ovary cells (CHO K1 cells) transfected stably with the human B1R gene (hB1R cells) or the B1R gene of the rat (rB1R cells) are used. For functional studies, these cells are plated out on black 96-well plates with a clear base (BD Biosciences, Heidelberg, Germany or Greiner, Frickenhausen, Germany) in a density of 20,000-35,000 cells/well. The cells are left overnight at 37° C. and 5% CO2 in culture medium (hB1R cells: Nutrient Mixture Ham's F12, Gibco Invitrogen GmbH, Karlsruhe, Germany or DMEM, Sigma-Aldrich, Taufkirchen, Germany; rB1R cells: D-MEM/F12, Gibco Invitrogen GmbH, Karlsruhe, Germany) with 10 vol. % FBS (foetal bovine serum, Gibco Invitrogen GmbH, Karlsruhe, Germany or PAN Biotech GmbH, Aidenbach, Germany). On the following day, the cells are loaded for 60 min at 37° C. with 2.13 μM Fluo-4 (Molecular Probes Europe BV, Leiden Holland) in HBSS buffer (Hank's buffered saline solution, Gibco Invitrogen GmbH, Karlsruhe, Germany) with 2.5 mM probenecid (Sigma-Aldrich, Taufkirchen, Germany) and 10 mM HEPES (Sigma-Aldrich, Taufkirchen, Germany). The plates are then washed 2× with HBSS buffer, and HBSS buffer which additionally contains 0.1% BSA (bovine serum albumin; Sigma-Aldrich, Taufkirchen, Germany), 5.6 mM glucose and 0.05% gelatine (Merck KGaA, Darmstadt, Germany) is added. After a further incubation of 20 minutes at room temperature, the plates are inserted into the FLIPR for the Ca^2+ measurement. Alternatively, the plates are washed with buffer A (15 mM HEPES, 80 mM NaCl, 5 mM KCl, 1.2 mM CaCl2, 0.7 mM MgSO4, 2 g/l glucose, 2.5 mM probenecid), buffer A is added and the plates are loaded with 2.5 μM Fluo-4 and 0.025% Pluronic F127 (Sigma-Aldrich, Taufkirchen, Germany). Thereafter, the cells are washed 2× with buffer A and incubated for 30 minutes at room temperature with buffer A, which additionally contains 0.05% BSA and 0.05% gelatine, and thereafter inserted into the FLIPR for the Ca^2+ measurement. The Ca^2+-dependent fluorescence is measured here before and after addition of substances (λex=488 nm, λem=540 nm). Quantification is by measurement of the highest fluorescence intensity (FC, fluorescence counts) over time.
The FLIPR protocol consists of 2 additions of substance. Test substances (10 μM) are first pipetted on to the cells and the Ca^2+ inflow is compared with the control (hB1R: Lys-Des-Arg^9-bradykinin>=50 nM; rB1R: Des-Arg^9-bradykinin 10 μM). This gives the result in % activation based on the Ca^2+ signal after addition of Lys-Des-Arg^9-bradykinin (>=50 nM) or Des-Arg^9-bradykinin (10 μM). After incubation for 10-20 minutes, Lys-Des-Arg^9-bradykinin (hB1R) or Des-Arg^9-bradykinin (rB1R) in the concentration of the EC80 is applied and the inflow of Ca^2+ is likewise determined. Antagonists lead to a suppression of the Ca^2+ inflow. % inhibition compared with the maximum achievable inhibition is calculated.
For determination of the IC50 value, the substances are added in various concentrations. […]

inhibition at 10 µM [1] | inhibition at 10 µM [2] | SMILES
96% | 98% | O=C(NC1CCc2ccc(C(=O)N3CCC4(CCN(c5ccnc(C(F)(F)F)n5)CC4)C3)cc21)c1ccccc1Cl (stereo not drawn) [Example H-51, 2-chloro-N-[6-[8-[2-(trifluoromethyl)-pyrimidin-4-yl]-3,8-diazaspiro[4.5]decane-3-carbonyl]-2,3-dihydro-1H-inden-1-yl]-benzamide]
104% | 100% | Cc1ccccc1C(=O)N[C@@H]1CCc2ccc(C(=O)N3CCC4(CCN(c5ccncc5)CC4)C3)cc21 [Example H-53, 2-Methyl-N-[(1R)-6-(8-pyridin-4-yl-3,8-diazaspiro[4.5]decane-3-carobnyl)-2,3-dihydro-1H-inden-1-yl]-benzamide]
102% | 98% | O=C(N[C@@H]1CCc2ccc(C(=O)N3CCCC4(CCN(c5ccncc5)CC4)C3)cc21)c1ccccc1Cl [Example H-54, 2-Chloro-N-[(1R)-6-(9-pyridin-4-yl-2,9-diazaspiro[5.5]undecane-2-carbonyl)-2,3-dihydro-1H-inden-1-yl]-benzamide]
87% | 42% | O=C(N[C@@H]1CCc2ccc(C(=O)N3CCC4(CCC(N5CCn6ncnc6C5)CC4)CC3)cc21)c1ccccc1Cl [Example H-55, 2-Chloro-N-[(1R)-6-[9-(5,6,7,8-tetrahydro-[1,2,4]triazolo[1,5-a]pyrazin-7-yl)-3-azaspiro[5.5]undecane-3-carbonyl]-2,3-dihydro-1H-inden-1-yl]-benzamide]
68% | 94% | COc1ccc2cc(C(=O)N[C@@H]3CCc4ccc(C(=O)N5CCC6(CCN(c7ccncc7)CC6)C5)cc43)ccc2c1 [Example H-56, 6-Methoxy-N-[(1R)-6-(8-pyridin-4-yl-3,8-diazaspiro[4.5]decane-3-carbonyl)-2,3-dihydro-1H-inden-1-yl]-naphthalene-2-carboxylic acid amide]
105% | 99% | O=C(N[C@@H]1CCOc2ccc(C(=O)N3CCC4(CC3)CCN(c3ccncc3)C4)cc21)c1ccccc1Cl [Example H-57, 2-Chloro-N-[(4R)-6-(3-pyridin-4-yl-3,8-diazaspiro[4.5]decane-8-carbonyl)-3,4-dihydro-2H-chromen-4-yl]-benzamide]
106% | 99% | O=C(N[C@@H]1CCOc2ccc(C(=O)N3CCC4(CC3)CCN(c3ccncc3)CC4)cc21)c1ccccc1Cl [Example H-58, 2-Chloro-N-[(4R)-6-(9-pyridin-4-yl-3,9-diazaspiro[5.5]undecane-3-carbonyl)-3,4-dihydro-2H-chromen-4-yl]-benzamide]
105% | 99% | Cc1cc2c(cc1C(=O)N1CCC3(CC1)CCN(c1ccncc1)C3)[C@H](NC(=O)c1ccccc1Cl)CC2 [Example H-59, 2-Chloro-N-[(1R)-5-methyl-6-(3-pyridin-4-yl-3,8-diazaspiro[4.5]decane-8-carbonyl)-2,3-dihydro-1H-inden-1-yl]-benzamide]
101% | 82% | COc1ccc(C(=O)N[C@@H]2CCc3ccc(C(=O)N4CCC5(CC4)CCN(c4ccncc4)C5)cc32)c(Cl)c1 [Example H-60, 2-Chloro-4-methoxy-N-[(1R)-6-(3-pyridin-4-yl-3,8-diazaspiro[4.5]decane-8-carbonyl)-2,3-dihydro-1H-inden-1-yl]-benzamide]
104% | 100% | COc1ccc(C(=O)N[C@@H]2CCc3ccc(C(=O)N4CCC5(CCN(c6ccncc6)CC5)C4)cc32)c(C)c1 [Example H-61, 4-Methoxy-2-methyl-N-[(1R)-6-(8-pyridin-4-yl-3,8-diazaspiro[4.5]decane-3-carbonyl)-2,3-dihydro-1H-inden-1-yl]-benzamide]
104% | 100% | COc1ccc(C(=O)N[C@@H]2CCc3ccc(C(=O)N4CCC5(CCN(c6ccncc6)CC5)C4)cc32)c(Cl)c1 [Example H-63, 2-Chloro-4-methoxy-N-[(1R)-6-(8-pyridin-4-yl-3,8-diazaspiro[4.5]decane-3-carbonyl)-2,3-dihydro-1H-inden-1-yl]-benzamide]
105% | 100% | O=C(N[C@@H]1CCc2cc(F)c(C(=O)N3CCC4(CCN(c5ccncc5)CC4)C3)cc21)c1ccccc1Cl [Example H-64, 2-Chloro-N-[(1R)-5-fluoro-6-(8-pyridin-4-yl-3,8-diazaspiro[4.5]decane-3-carbonyl)-2,3-dihydro-1H-inden-1-yl]-benzamide hydrochloride]
105% | 100% | O=C(N[C@@H]1CCOc2cc(F)c(C(=O)N3CCC4(CCN(c5ccncc5)CC4)C3)cc21)c1ccccc1Cl [Example H-65, 2-Chloro-N-[(4R)-7-fluoro-6-(8-pyridin-4-yl-3,8-diazaspiro[4.5]decane-3-carbonyl)-3,4-dihydro-2H-chromen-4-yl]-benzamide]

SMILES | inhibition at 10 µM [1] | inhibition at 10 µM [2]
O=C(N[C@@H]1CCc2ccc(C(=O)N3CCC4(CCC(C(=O)N[C@H]5CN6CCC5CC6)CC4)CC3)cc21)c1ccccc1Cl [Example H-52, N-[(5R)-1-Azabicyclo[2.2.2]octan-5-yl]-3-[(3R)-3-[(2-chloro-benzoyl)amino]-2,3-dihydro-1H-indene-5-carbonyl]-3-azaspiro[5.5]undecane-9-carboxylic acid amide] | 46% | 28%
O=C(N[C@@H]1CCc2ccc(C(=O)N3CCC4(CCC(C(=O)N[C@@H]5CN6CCC5CC6)CC4)CC3)cc21)c1ccccc1Cl [Example H-62, N-[(5S)-1-Azabicyclo[2.2.2]octan-5-yl]-3-[(3R)-3-[(2-chloro-benzoyl)amino]-2,3-dihydro-1H-indene-5-carbonyl]-3-azaspiro[5.5]undecane-9-carboxylic acid amide] | 102% | 30%
